Assay results: patent publication US20200131249A1, “NOVEL PROTEINS AND USE THEREOF” (EVOLVERITAS KFT., priority 2017, published 2020)
Where no end group is shown, it is not given here.

Columns and labels:
classical pathway = assay: C3 deposition ELISA with diluted rat serum on IgG coated plates; type: biochemical; details: final concentrations as high as 50 μM; 50-fold diluted rat serum
Procedure: (§1) ELISA-based complement classical and alternative pathway activation tests were performed on IgG or lipopolysaccharide (LPS) coated plates, respectively, using diluted individual (not pooled) rat serum. In these tests, inhibitory efficiencies of the protein of SEQ ID NO: 14 and SGMI-2 were compared and C3 deposition was used for quantification of the complement activation.
96-well Greiner high binding ELISA plates were coated with 100 μl/well 10 μg/ml IgG (Sigma—12511) dissolved in coating buffer (50 mM sodium-carbonate pH 9.6) overnight at 4° C. Control wells contained coating buffer alone. Wells were blocked for 2 h at 37° C. with 200 μl/well 10 mg/ml bovine serum albumin (BSA) dissolved in 50 mM Tris pH 7.4, 150 mM NaCl, 0.1% Tween-20 buffer. Serial dilutions of the inhibitors were made in 10 mM HEPES pH 7.4, 150 mM NaCl, 5 mM CaCl2, 5 mM MgCl2, 0.1% Tween-20 buffer (serum dilution buffer). Rat serum was thawed on ice and diluted 25-fold in serum dilution buffer. The diluted inhibitor samples were mixed with the 25-fold diluted rat serum in 1:1 volume ratio resulting in 50-fold diluted rat serum-inhibitor samples. The samples were incubated at room temperature for 30 minutes. […] The 490 nm absorbance values were recorded using a PerkinElmer EnSpire multimode plate reader. Four parallels were measured for each data point.

alternative pathway = assay: C3 deposition ELISA with rat serum on LPS coated plates; type: biochemical; details: final concentrations as high as 50 μM; 6-fold diluted rat serum
Procedure: as §1
The buffers, incubation times, incubation temperatures and antibodies were the same as described in point 4.5.1.
The final dilution of the rat serum was 6-fold. The dilution of the primary antibody was 3000-fold.

Row | Substance | inhibition of the classical pathway in rat serum (classical pathway) | inhibition of the alternative pathway in rat serum (alternative pathway)
1 | SGMI-2 (GSGEVTCEPGTTFKDKCNTCRCGSDGKSAVCTKLWCNQ; Synthetic protein of insect origin) [reference compound] | neither the protein of SEQ ID NO: 14 nor SGMI-2 were able to inhibit | neither the protein of SEQ ID NO: 14 nor SGMI-2 were able to inhibit
2 | SEQ ID NO: 14: TFPI-D2 variant protein with inhibitor loop PCRAVKR (SEQ ID NO: 4) (KPDFCFLEEDPGPCRAVKRRYFYNNQTKQCERFKYGGCLGNMNNFETLEECKNICEDG; ends and bridges not checked; cysteine pairing not given here) | neither the protein of SEQ ID NO: 14 nor SGMI-2 were able to inhibit | neither the protein of SEQ ID NO: 14 nor SGMI-2 were able to inhibit
